Values of other authors in patent publication US9603803B2, “Process for preparing spray dried formulations of 4-[[6-amino-5-bromo-2-[(4-cyanophenyl)amino]-4-pyrimidinyl]oxy]-3,5-dimethylbenzonitrile” (JANSSEN SCIENCES IRELAND UC, priority 2006, dated 2017).

In the case of `Cc1cc(C#N)cc(C)c1Oc1nc(Nc2ccc(C#N)cc2)nc(N)c1Br` [TMC125, 4-[[6-amino-5-bromo-2-[(4-cyanophenyl)amino]-4-pyrimidinyl]oxy]-3,5-dimethylbenzonitrile], the “activity against wild type HIV” value (wild type HIV) is listed as “pronounced activity”, the “activity against many mutated variants” value (many mutated variants) is listed as “pronounced activity” and the water-solubility is listed as “poor”.
